Like-named read-outs stand apart in the source and are kept apart here.
What was measured:
[1] = tested on: hsEH; details: training set, Table S1; ref reference publication (DOI) of Table S1; cited from earlier work
[2] = target: T1, rat sEH (rsEH) (Rattus norvegicus, UniProt P80299); experiment: fluorescence-based sEH IC50 assay (CMNPC substrate); assay type: biochemical; details: experimental
T1 sequence (P80299 1-554): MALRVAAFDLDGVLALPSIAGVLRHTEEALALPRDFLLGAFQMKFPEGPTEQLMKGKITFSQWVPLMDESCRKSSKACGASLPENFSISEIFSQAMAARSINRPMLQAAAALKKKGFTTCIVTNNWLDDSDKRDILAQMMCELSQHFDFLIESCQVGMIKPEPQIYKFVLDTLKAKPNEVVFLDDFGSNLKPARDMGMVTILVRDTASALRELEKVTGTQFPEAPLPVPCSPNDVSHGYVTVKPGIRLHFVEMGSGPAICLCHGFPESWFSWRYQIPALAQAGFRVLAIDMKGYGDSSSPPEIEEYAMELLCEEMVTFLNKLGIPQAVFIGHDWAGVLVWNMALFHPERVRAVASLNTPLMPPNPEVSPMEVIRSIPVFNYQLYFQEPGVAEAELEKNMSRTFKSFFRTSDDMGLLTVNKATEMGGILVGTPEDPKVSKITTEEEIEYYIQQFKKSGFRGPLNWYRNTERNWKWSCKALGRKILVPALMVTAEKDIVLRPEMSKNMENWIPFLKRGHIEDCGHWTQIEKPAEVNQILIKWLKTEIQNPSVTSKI
Experimental: (§1) The IC50 values of the 18 compounds selected from the log P + HB and QE + R3 pharmacophore ranking were determined using a fluorescence-based assay[68] with either purified recombinant hsEH, mouse sEH (msEH), or rat sEH (rsEH). The enzyme was incubated at 30 °C with the inhibitors ([I]final = 0.4–50,000 nM) for 5 min in 100 mM sodium phosphate buffer (200 μL, pH 7.4) containing 0.1 mg/mL of […] (BSA) and 1% dimethyl sulfoxide (DMSO). The substrate (cyano(6-methoxynaphthalen-2-yl)methyl((3-phenyloxiran-2-yl)methyl)carbonate; CMNPC) was then added ([S]final = 5 μM). The activity was assessed by measuring the appearance of the fluorescent 6-methoxynaphthaldehyde product (λex = 330 nm, λem = 465 nm) every 30 s for 10 min at 30 °C on a SpectraMax M2 (Molecular Devices, CA). The results were obtained by regression analysis from a linear region of the curve.

[3] = target: T2, mouse sEH (msEH) (Mus musculus, UniProt P34914); experiment: as above; assay type: biochemical; details: experimental
T2 sequence (P34914 1-554): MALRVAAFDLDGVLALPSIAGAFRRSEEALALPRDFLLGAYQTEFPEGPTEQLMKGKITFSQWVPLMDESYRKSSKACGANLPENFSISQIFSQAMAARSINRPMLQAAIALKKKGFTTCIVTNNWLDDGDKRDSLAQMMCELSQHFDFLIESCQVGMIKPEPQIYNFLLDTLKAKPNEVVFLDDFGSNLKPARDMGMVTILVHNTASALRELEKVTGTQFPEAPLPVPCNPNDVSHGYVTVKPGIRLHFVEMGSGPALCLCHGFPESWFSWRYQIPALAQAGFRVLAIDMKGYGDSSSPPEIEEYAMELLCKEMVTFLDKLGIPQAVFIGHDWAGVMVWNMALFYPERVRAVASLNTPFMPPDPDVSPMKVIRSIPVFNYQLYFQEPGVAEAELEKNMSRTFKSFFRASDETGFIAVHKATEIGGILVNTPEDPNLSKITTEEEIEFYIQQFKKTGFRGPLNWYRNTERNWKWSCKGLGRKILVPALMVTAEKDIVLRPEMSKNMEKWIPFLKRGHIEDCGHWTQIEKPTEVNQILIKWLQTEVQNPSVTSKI
Experimental: as §1

[4] = target: T3, purified recombinant hsEH (Homo sapiens, UniProt P34913); experiment: as above; assay type: biochemical
T3 sequence (P34913 1-555): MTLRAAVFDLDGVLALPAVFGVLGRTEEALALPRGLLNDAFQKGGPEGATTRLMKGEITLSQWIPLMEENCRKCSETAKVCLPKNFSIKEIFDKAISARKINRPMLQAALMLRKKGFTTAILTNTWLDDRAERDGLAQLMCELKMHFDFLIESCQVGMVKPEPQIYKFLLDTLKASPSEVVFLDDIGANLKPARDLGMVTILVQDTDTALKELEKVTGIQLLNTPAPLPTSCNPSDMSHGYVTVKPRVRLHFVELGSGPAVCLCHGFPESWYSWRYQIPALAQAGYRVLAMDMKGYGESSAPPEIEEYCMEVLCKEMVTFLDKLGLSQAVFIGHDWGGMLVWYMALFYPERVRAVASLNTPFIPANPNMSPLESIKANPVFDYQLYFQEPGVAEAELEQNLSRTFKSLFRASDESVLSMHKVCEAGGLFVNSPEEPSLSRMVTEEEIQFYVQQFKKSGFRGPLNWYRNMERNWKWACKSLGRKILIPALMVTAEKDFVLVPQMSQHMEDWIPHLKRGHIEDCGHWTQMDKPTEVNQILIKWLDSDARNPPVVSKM
Experimental: as §1

[5] = experimental, human sEH, read-out: pIC50 hsEH (converted)

SMILES | IC50 [2] [nM] | IC50 [4, 5] [nM] | IC50 [3] [nM] | also measured
O=C(O)CCCNC(=O)NC1CCCCC1 [TR_mol23] |  |  |  | pIC50 [1]: 3.3
O=C(N/N=C/c1c2ccccc2cc2ccccc12)NC12CC3CC(CC(C3)C1)C2 [AK-968/40204236, O=C(N/N=C/c1c2ccccc2cc2ccccc12)NC12CC3CC(CC(C3)C1)C2] |  |  |  | pIC50 rsEH [2]: 6.5; pIC50 msEH [3]: 5.8
O=C(NCc1ccc(N2CCCC2=O)cc1)NCc1cccc(C(F)(F)F)c1 [Z211761694, O=C(NCc1ccc(N2CCCC2=O)cc1)NCc1cccc(C(F)(F)F)c1] | 200 | 200 | 501 | 
NC(=O)COc1ccc(NC(=O)NCCC(c2ccccc2)c2ccccc2)cc1 [Z339843288, NC(=O)COc1ccc(NC(=O)NCCC(c2ccccc2)c2ccccc2)cc1] | 1 | 1.26 | 1.26 | 
O=C(NCCC(=O)N1CCN(S(=O)(=O)c2ccccc2F)CC1)NC12CC3CC(CC(C3)C1)C2 [Z29532165, O=C(NCCC(=O)N1CCN(S(=O)(=O)c2ccccc2F)CC1)NC12CC3CC(CC(C3)C1)C2] | 39.8 | 501 | 398 | 
O=C(NCc1ccc(-c2nc3ccccc3s2)o1)NC1CCCC(C(F)(F)F)C1 (stereo not shown) [Z353003074, O=C(NCc1ccc(-c2nc3ccccc3s2)o1)NC1CCCC(C(F)(F)F)C1] | 5.01 | 6.31 | 10 | 
CC1CCCCC1OCCNC(=O)Nc1cccc(OCc2ccccn2)c1 (stereo not shown) [Z416144030, CC1CCCCC1OCCNC(=O)Nc1cccc(OCc2ccccn2)c1] | 20 | 15.8 | 200 | 
CC(C)N1CCC(NC(=O)NCCC(c2ccccc2)c2ccccc2)CC1 [Z339670416, CC(C)N1CCC(NC(=O)NCCC(c2ccccc2)c2ccccc2)CC1] | 501 | 100 | 1580 | 
O=C(NC[C@H]1COc2ccccc2O1)c1ccc2c(c1)N(Cc1cccc(Cl)c1)C(=O)CS2 [TR_mol17, 4-[(3-chlorophenyl)methyl]-N-[[(3S)-2,3-dihydro-1,4-benzodioxin-3-yl]methyl]-3-oxidanylidene-1,4-benzothiazine-6-carboxamide] |  |  |  | pIC50 [1]: 7.5
CC(=O)CCc1ccc(OCC(=O)N2CCCC(CNC(=O)Nc3ccc(C)cc3)C2)cc1 (stereo not shown) [Z1033382608, CC(=O)CCc1ccc(OCC(=O)N2CCCC(CNC(=O)Nc3ccc(C)cc3)C2)cc1] | 398 | 501 | 3160 | 
O=C(COC(=O)c1ccc(N2CCCC2=O)cc1)NC(=O)NC12CC3CC(CC(C3)C1)C2 [Z23294293, O=C(COC(=O)c1ccc(N2CCCC2=O)cc1)NC(=O)NC12CC3CC(CC(C3)C1)C2] | 39.8 | 100 | 631 | 
CC(C(=O)NC(=O)NC12CC3CC(CC(C3)C1)C2)N1CCN(C(=O)C2COc3ccccc3O2)CC1 (stereo not shown) [Z65159029, CC(C(=O)NC(=O)NC12CC3CC(CC(C3)C1)C2)N1CCN(C(=O)C2COc3ccccc3O2)CC1] | 2000 | 5010 | 20000 | 
Cc1ccc(C(C)C)c(OCc2ccc(C(=O)NNC(=O)NC34CC5CC(CC(C5)C3)C4)o2)c1 [AK-968/15603026, Cc1ccc(C(C)C)c(OCc2ccc(C(=O)NNC(=O)NC34CC5CC(CC(C5)C3)C4)o2)c1] | 39.8 | 126 | 316 | 
O=C(Nc1ccc2c(c1)-c1ccccc1S2(=O)=O)N1CCC(F)(F)CC1 [TR_mol15, N-(5,5-dioxodibenzothiophen-2-yl)-4,4-difluoro-piperidine-1-carboxamide] |  |  |  | pIC50 [1]: 7.8
O=C(O)CCCCCNC(=O)NC1CCCCC1 [TR_mol33] |  |  |  | pIC50 [1]: 3.6
O=C(NCCC(c1ccccc1)c1ccccc1)NC1CCCCC1 [AK-968/41927527, O=C(NCCC(c1ccccc1)c1ccccc1)NC1CCCCC1] | 0.398 | 0.398 | 1.26 | IC50 hsEH ([4]; human enzyme): subnanomolar
O=C(NC1CCC(Oc2ccc(C(=O)O)cc2)CC1)NC12CC3CC(CC(C3)C1)C2 (stereo not drawn) [TR_mol5, 4-[(trans-4-{[(3s,5s,7s)-tricyclo[3.3.1.1∼3,7∼]dec-1-ylcarbamoyl]amino}cyclohexyl)oxy]benzoic acid] |  |  |  | pIC50 [1]: 8.9
CC(NC(=O)NCc1ccc(N2CCCC2=O)cc1)c1cccc(Cl)c1 (stereo not shown) [Z211852480, CC(NC(=O)NCc1ccc(N2CCCC2=O)cc1)c1cccc(Cl)c1] | 501 | 126 | 631 | 
O=C(NNC(=O)c1ccc(COc2ccccc2)cc1)NC12CC3CC(CC(C3)C1)C2 [Z44611499, O=C(NNC(=O)c1ccc(COc2ccccc2)cc1)NC12CC3CC(CC(C3)C1)C2] | 20 | 6.31 | 126 | IC50 ([4]; human enzyme, read-out: IC50 hsEH): < 20 nM
O=C(CSc1nc(-c2ccccc2)cn1-c1ccccc1)NC(=O)Nc1ccccc1 [AO-476/43362680, O=C(CSc1nc(-c2ccccc2)cn1-c1ccccc1)NC(=O)Nc1ccccc1] | 25100 | 3980 | 25100 | 
CC1CCC(NC(=O)Nc2cccc(Cn3nc4ccccn4c3=O)c2)CC1 (stereo not shown) [Z436130862, CC1CCC(NC(=O)Nc2cccc(Cn3nc4ccccn4c3=O)c2)CC1] | 1 | 0.794 | 1 | IC50 hsEH ([4]; human enzyme): subnanomolar

Source: PMC10207366, “Screening and Biological Evaluation of Soluble Epoxide Hydrolase Inhibitors: Assessing the Role of Hydrophobicity in the Pharmacophore-Guided Search of Novel Hits” (Journal of Chemical Information and Modeling, 2023)
